Experimental data taken from ChEMBL document CHEMBL5505958, “Optimization of sequence and chiral content enhances therapeutic potential of tilapia piscidin peptides” (Eur J Med Chem, 2024).
Values after ≈ are worked out from the molar mass of the structure shown. Active and inactive are the calls of the source. The calls are words filed in the database; no cut-off is given here.

Key:
Klebsiella pneumoniae [1] = assay: Bactericidal activity against Klebsiella pneumoniae BAA 2473 assessed as inhibition of bacterial growth in presence of 10 microg/ml of chymotrypsin (reference value: 1.56 to 3.13 microM); assay type: functional
Salmonella typhimurium = assay: Antibacterial activity against Salmonella typhimurium DT104 assessed as inhibition of bacterial growth incubated for 16 to 20 hrs; assay type: functional, Salmonella enterica subsp. enterica serovar Typhimurium; conditions: Salmonella enterica, time 16-20 hrs
Enterococcus faecium [2] = assay: Antibacterial activity against Enterococcus faecium 10067 assessed as inhibition of bacterial growth incubated for 16 to 20 hrs in presence of human serum; assay type: functional; conditions: time 16-20 hrs
Acinetobacter baumannii [3] = assay: Antibacterial activity against Acinetobacter baumannii 10591 assessed as inhibition of bacterial growth incubated for 16 to 20 hrs; assay type: functional; conditions: time 16-20 hrs
Klebsiella aerogenes [4] = assay: Bactericidal activity against Enterobacter aerogenes 15630 assessed as inhibition of bacterial growth incubated for 16 to 20 hrs; assay type: functional; conditions: time 16-20 hrs
Vibrio vulnificus [5] = assay: Antibacterial activity against Vibrio vulnificus 204 assessed as inhibition of bacterial growth incubated for 16 to 20 hrs; assay type: functional; conditions: time 16-20 hrs
Klebsiella pneumoniae [6] = assay: Antibacterial activity against Klebsiella pneumoniae BAA 2473 assessed as inhibition of bacterial growth incubated for 16 to 20 hrs; assay type: functional; conditions: time 16-20 hrs
Klebsiella pneumoniae [7] = assay: Antibacterial activity against Klebsiella pneumoniae BAA 2473 assessed as inhibition of bacterial growth in presence of 1 microg/ml of pepsin (reference value: 1.56 to 3.13 microM); assay type: functional
Enterococcus faecalis = assay: Bactericidal activity against Enterococcus faecalis 10066 assessed as inhibition of bacterial growth incubated for 16 to 20 hrs; assay type: functional; conditions: time 16-20 hrs
Vibrio vulnificus [8] = assay: Bactericidal activity against Vibrio vulnificus 204 assessed as inhibition of bacterial growth incubated for 16 to 20 hrs; assay type: functional; conditions: time 16-20 hrs
Klebsiella pneumoniae [9] = assay: Antibacterial activity against Klebsiella pneumoniae BAA 2473 assessed as inhibition of bacterial growth in presence of 0.1 microg/ml of chymotrypsin (reference value: 1.56 to 3.13 microM); assay type: functional
Klebsiella pneumoniae [10] = assay: Antibacterial activity against Klebsiella pneumoniae BAA 2473 assessed as inhibition of bacterial growth in presence of 1 microg/ml of proteinase K (reference value: 1.56 to 3.13 microM); assay type: functional
Vibrio vulnificus [11] = assay: Bactericidal activity against Vibrio vulnificus 204 assessed as inhibition of bacterial growth incubated for 16 to 20 hrs in presence of human serum; assay type: functional; conditions: time 16-20 hrs
Klebsiella pneumoniae [12] = assay: Antibacterial activity against Klebsiella pneumoniae BAA 2473 assessed as inhibition of bacterial growth in presence of 10 microg/ml of trypsin (reference value: 1.56 to 3.13 microM); assay type: functional
Klebsiella pneumoniae [13] = assay: Bactericidal activity against Klebsiella pneumoniae 10692 assessed as inhibition of bacterial growth incubated for 16 to 20 hrs; assay type: functional; conditions: time 16-20 hrs
Rhizopus arrhizus [14] = assay: Antifungal activity against Rhizopus oryzae 34550 assessed as inhibition of fungal growth incubated for 16 to 20 hrs; assay type: functional; conditions: time 16-20 hrs
Klebsiella aerogenes [15] = assay: Antibacterial activity against Enterobacter aerogenes 15630 assessed as inhibition of bacterial growth incubated for 16 to 20 hrs; assay type: functional; conditions: time 16-20 hrs
Escherichia coli [16] = assay: Antibacterial activity against Escherichia coli 10675 assessed as inhibition of bacterial growth incubated for 16 to 20 hrs; assay type: functional; conditions: time 16-20 hrs
Escherichia coli [17] = assay: Bactericidal activity against Escherichia coli 10675 assessed as inhibition of bacterial growth incubated for 16 to 20 hrs in presence of human serum; assay type: functional; conditions: time 16-20 hrs
Escherichia coli [18] = assay: Antibacterial activity against Escherichia coli 10675 assessed as inhibition of bacterial growth incubated for 16 to 20 hrs in presence of human serum; assay type: functional; conditions: time 16-20 hrs
Klebsiella pneumoniae [19] = assay: Antibacterial activity against Klebsiella pneumoniae TL 297 assessed as inhibition of bacterial growth incubated for 16 to 20 hrs in presence of human serum; assay type: functional; conditions: time 16-20 hrs
Klebsiella pneumoniae [20] = assay: Bactericidal activity against Klebsiella pneumoniae BAA 2473 assessed as inhibition of bacterial growth in presence of 0.1 microg/ml of trypsin (reference value: 1.56 to 3.13 microM); assay type: functional
Staphylococcus aureus = assay: Antibacterial activity against Staphylococcus aureus 10780 assessed as inhibition of bacterial growth incubated for 16 to 20 hrs in presence of human serum; assay type: functional; conditions: time 16-20 hrs
Cell membrane [21] = assay: Induction of cell membrane depolarization in Klebsiella pneumoniae BAA 2473 assessed as increase in fluorescence intensity at 1 times MIC incubated for 40 mins by DiBAC4(3) fluorescent dye based assay; assay type: cell membranes
Rhizopus arrhizus [22] = assay: Antifungal activity against Rhizopus oryzae 34550 assessed as inhibition of fungal growth incubated for 16 to 20 hrs in presence of human serum; assay type: functional; conditions: time 16-20 hrs
Salmonella enterica [23] = assay: Bactericidal activity against Salmonella enterica 15455 assessed as inhibition of bacterial growth incubated for 16 to 20 hrs in presence of human serum; assay type: functional; conditions: time 16-20 hrs
Klebsiella pneumoniae [24] = assay: Bactericidal activity against Klebsiella pneumoniae BAA 2473 assessed as inhibition of bacterial growth incubated for 16 to 20 hrs; assay type: functional; conditions: time 16-20 hrs
Klebsiella pneumoniae [25] = assay: Antibacterial activity against Klebsiella pneumoniae BAA 2473 assessed as inhibition of bacterial growth in presence of 0.1 microg/ml of trypsin (reference value: 1.56 to 3.13 microM); assay type: functional
Klebsiella pneumoniae [26] = assay: Antibacterial activity against Klebsiella pneumoniae BAA 2473 assessed as inhibition of bacterial growth in presence of 1 microg/ml of chymotrypsin (reference value: 1.56 to 3.13 microM); assay type: functional
Acinetobacter baumannii [27] = assay: Bactericidal activity against Acinetobacter baumannii 10591 assessed as inhibition of bacterial growth incubated for 16 to 20 hrs; assay type: functional; conditions: time 16-20 hrs
Salmonella enterica [28] = assay: Antibacterial activity against Salmonella enterica 15455 assessed as inhibition of bacterial growth incubated for 16 to 20 hrs; assay type: functional; conditions: time 16-20 hrs
Rhizopus arrhizus [29] = assay: Fungicidal activity against Rhizopus oryzae 34550 assessed as inhibition of fungal growth incubated for 16 to 20 hrs in presence of human serum; assay type: functional; conditions: time 16-20 hrs
Klebsiella pneumoniae [30] = assay: Bactericidal activity against Klebsiella pneumoniae BAA 2473 assessed as inhibition of bacterial growth in presence of 1 microg/ml of chymotrypsin (reference value: 1.56 to 3.13 microM); assay type: functional
Klebsiella pneumoniae [31] = assay: Induction of morphological changes in Klebsiella pneumoniae BAA 2473 assessed as membrane deformations with protruding granules at by transmission electron microscopy analysis; assay type: functional, organism-based
Pseudomonas aeruginosa = assay: Antibacterial activity against Pseudomonas aeruginosa 19660 assessed as inhibition of bacterial growth incubated for 16 to 20 hrs in presence of human serum; assay type: functional; conditions: time 16-20 hrs
Cell membrane [32] = assay: Induction of outer cell membrane permeabilization in Klebsiella pneumoniae BAA 2473 assessed as increase in fluorescence intensity by NPN uptake assay; assay type: cell membranes
Lipopolysaccharide (LPS) = assay: Displacement of BODIPY-TR-cadaverine from Klebsiella pneumoniae BAA 2473 lipopolysaccharide (LPS) assessed as increase in fluorescence intensity at 3.125 uM by fluorescence spectrophotometric analysis; assay type: subcellular
Enterococcus faecium [33] = assay: Bactericidal activity against Enterococcus faecium 10067 assessed as inhibition of bacterial growth incubated for 16 to 20 hrs in presence of human serum; assay type: functional; conditions: time 16-20 hrs
Klebsiella pneumoniae [34] = assay: Bactericidal activity against Klebsiella pneumoniae BAA 2473 assessed as inhibition of bacterial growth in presence of 10 microg/ml of trypsin (reference value: 1.56 to 3.13 microM); assay type: functional
Escherichia coli [35] = assay: Bactericidal activity against Escherichia coli 10675 assessed as inhibition of bacterial growth incubated for 16 to 20 hrs; assay type: functional; conditions: time 16-20 hrs
Klebsiella pneumoniae [36] = assay: Antibacterial activity against Klebsiella pneumoniae 10692 assessed as inhibition of bacterial growth incubated for 16 to 20 hrs; assay type: functional; conditions: time 16-20 hrs

CC(C)C[C@H](NC(=O)[C@H](CCCCN)NC(=O)[C@@H](CCCCN)NC(=O)[C@H](CC(C)C)NC(=O)[C@@H](N)Cc1ccccc1)C(=O)N[C@H](CC(C)C)C(=O)N[C@@H](CCCCN)C(=O)N[C@@H](C)C(=O)N[C@H](CC(C)C)C(=O)N[C@@H](Cc1ccccc1)C(=O)N[C@@H](CO)C(=O)N[C@H](C)C(=O)N1CCC[C@H]1C(=O)N[C@@H](CCCCN)C(=O)N[C@H](C)C(=O)N[C@@H](CC(C)C)C(=O)N[C@@H](CCCCN)C(=O)N[C@H](CCCNC(=N)N)C(=O)N[C@@H](CC(C)C)C(=O)N[C@@H](CC(C)C)C(=O)N[C@H](CCCNC(=N)N)C(=O)N[C@@H](CCCNC(=N)N)C(=O)N[C@@H](CCCNC(=N)N)C(=O)N[C@H](CCCNC(=N)N)C(=O)N[C@@H](CCCNC(=N)N)C(=O)O
MBC (Klebsiella pneumoniae [1]): 0.78 µM | MIC (Salmonella typhimurium): 6.25 µM (≈ 19.2 µg/mL) | MIC (Enterococcus faecium [2]): 100 µM | MIC (Acinetobacter baumannii [3]): 3.13 µM (≈ 9.64 µg/mL) | MBC (Klebsiella aerogenes [4]): 6.25 µM (≈ 19.2 µg/mL) | MIC (Vibrio vulnificus [5]): 12.5 µM (≈ 38.5 µg/mL) | MIC (Klebsiella pneumoniae [6]): 0.78 µM (≈ 2.4 µg/mL) | MIC (Klebsiella pneumoniae [7]): 0.78 µM | MBC (Enterococcus faecalis): > 12.5 µM | MBC (Vibrio vulnificus [8]): 12.5 µM (≈ 38.5 µg/mL) | MIC (Klebsiella pneumoniae [9]): 0.78 µM | MIC (Klebsiella pneumoniae [10]): 0.78 µM | MBC (Vibrio vulnificus [11]): 12.5 µM | MIC (Klebsiella pneumoniae [12]): 1.56 µM | MBC (Klebsiella pneumoniae [13]): 3.13 µM (≈ 9.64 µg/mL) | MIC (Rhizopus arrhizus [14]): 0.78 µM (≈ 2.4 µg/mL) | MIC (Klebsiella aerogenes [15]): 1.56 µM (≈ 4.8 µg/mL) | MIC (Escherichia coli [16]): 1.56 µM (≈ 4.8 µg/mL) | MBC (Escherichia coli [17]): 0.78 µM | MIC (Escherichia coli [18]): 0.78 µM | MIC (Klebsiella pneumoniae [19]): 1.56 µM | MBC (Klebsiella pneumoniae [20]): 0.78 µM | MIC (Staphylococcus aureus): 6.25 µM | Activity (Cell membrane [21]): Active | MIC (Rhizopus arrhizus [22]): 3.13 µM | MBC (Salmonella enterica [23]): 0.78 µM | MBC (Klebsiella pneumoniae [24]): 25 µM (≈ 77 µg/mL) | MIC (Klebsiella pneumoniae [25]): 0.78 µM | MIC (Klebsiella pneumoniae [26]): 0.78 µM | MBC (Acinetobacter baumannii [27]): 3.13 µM (≈ 9.64 µg/mL) | MIC (Salmonella enterica [28]): 3.13 µM (≈ 9.64 µg/mL) | MBC (Rhizopus arrhizus [29]): 100 µM | MBC (Klebsiella pneumoniae [30]): 0.78 µM | Activity (Klebsiella pneumoniae [31]): Active | MIC (Pseudomonas aeruginosa): 3.13 µM | Activity (Cell membrane [32]): Active | Activity (Lipopolysaccharide (LPS)): 100% | MBC (Enterococcus faecium [33]): 100 µM | MBC (Klebsiella pneumoniae [34]): 1.56 µM | MBC (Escherichia coli [35]): 3.13 µM (≈ 9.64 µg/mL) | MIC (Klebsiella pneumoniae [36]): 3.13 µM (≈ 9.64 µg/mL)
